Data published in the supplement of paper PMC10307832.

Experiments:
Assay in all cases: relative viability (nuclei count vs DMSO), 5 days (fraction); higher = more cells survive
Selisistat + Palbociclib = compound: C1CC(C2=C(C1)C3=C(N2)C=CC(=C3)Cl)C(=O)N [Selisistat] + CC(=O)c1c(C)c2cnc(Nc3ccc(N4CCNCC4)cn3)nc2n(C2CCCC2)c1=O [Palbociclib] (partner 0.5 µM)
Outline: (§1)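 After 5 days of treatment, lung cancer cells in 1536-well plates were fixed and stained in a single step (final 0.05% Triton X-100, 1% formaldehyde, 1 ug/ml Hoechst) and their nuclei counted on 4× images. Treatment had been applied by pin tool the day after seeding as one drug alone or as a fixed anchor-drug dose with five library-drug doses (not always all listed) in √10 steps. Relative viability is the nuclei count of treated wells divided by that of vehicle wells, and values are medians of duplicate plates.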

Selisistat + Navitoclax = compound: C1CC(C2=C(C1)C3=C(N2)C=CC(=C3)Cl)C(=O)N [Selisistat] + CC1(C)CCC(c2ccc(Cl)cc2)=C(CN2CCN(c3ccc(C(=O)NS(=O)(=O)c4ccc(N[C@H](CCN5CCOCC5)CSc5ccccc5)c(S(=O)(=O)C(F)(F)F)c4)cc3)CC2)C1 [Navitoclax] (partner 0.5 µM)
Outline: as §1

Serdemetan + Crizotinib = compound: c1ccc2c(CCNc3ccc(Nc4ccncc4)cc3)c[nH]c2c1 [Serdemetan] + C[C@@H](Oc1cc(-c2cnn(C3CCNCC3)c2)cnc1N)c1c(Cl)ccc(F)c1Cl [Crizotinib] (partner 1 µM)
Outline: as §1

Serdemetan + Linsitinib = compound: c1ccc2c(CCNc3ccc(Nc4ccncc4)cc3)c[nH]c2c1 [Serdemetan] + C[C@]1(O)C[C@@H](c2nc(-c3ccc4ccc(-c5ccccc5)nc4c3)c3c(N)nccn32)C1 [Linsitinib] (partner 1 µM)
Outline: as §1

Cell Line	relative viability (Selisistat + Palbociclib; first compound 0.4 µM)	relative viability (Selisistat + Palbociclib; first compound 1.265 µM)	relative viability (Selisistat + Palbociclib; first compound 4 µM)	relative viability (Selisistat + Palbociclib; first compound 12.65 µM)	relative viability (Selisistat + Palbociclib; first compound 40 µM)	relative viability (Selisistat + Navitoclax; first compound 0.4 µM)	relative viability (Selisistat + Navitoclax; first compound 1.265 µM)	relative viability (Selisistat + Navitoclax; first compound 4 µM)	relative viability (Selisistat + Navitoclax; first compound 12.65 µM)	relative viability (Selisistat + Navitoclax; first compound 40 µM)	relative viability (Serdemetan + Crizotinib; first compound 0.04 µM)	relative viability (Serdemetan + Crizotinib; first compound 0.1265 µM)	relative viability (Serdemetan + Crizotinib; first compound 0.4 µM)	relative viability (Serdemetan + Crizotinib; first compound 1.265 µM)	relative viability (Serdemetan + Crizotinib; first compound 4 µM)	relative viability (Serdemetan + Linsitinib; first compound 0.04 µM)	relative viability (Serdemetan + Linsitinib; first compound 0.1265 µM)	relative viability (Serdemetan + Linsitinib; first compound 0.4 µM)	relative viability (Serdemetan + Linsitinib; first compound 1.265 µM)	relative viability (Serdemetan + Linsitinib; first compound 4 µM)
NCI-H2126	0.377	0.369	0.336	0.362	0.37	0.888	0.837	0.829	0.899	0.913	1.02	1.07	0.944	0.734	1	0.745	0.736	0.638	0.642	0.686
NCI-H2228	0.797	0.726	0.802	0.795	0.801	1.15	0.894	0.759	0.939	0.747	0.466	0.284	0.591	0.237	0.287	0.806	0.68	0.519	0.59	0.397
NCI-H2347	0.38	0.438		0.409	0.447	0.846	0.847	0.588	0.792	0.853	0.673	0.699	0.674	0.506	0.0688	0.753	0.965	0.959	0.666	0.679
NCI-H2405	0.534	0.536		0.578	0.502	0.785			0.804	0.793	0.81	0.781	0.818	0.763	0.608	0.864	0.997	0.964	0.897	0.628
NCI-H3122	0.223	0.191		0.191	0.178	1.01	1.02	0.935	1.04	0.961	0.292	0.241	0.28		0.237	1.09	0.946	1.05		1.07
PC-3 [JPC-3]	0.608	0.636		0.571	0.529	0.753	0.741	0.746	0.696	0.776	0.947	0.94		1.02	1.03	0.92	0.972		0.919	0.985
PC-14	0.513	0.498	0.528	0.53	0.489	0.963	1.04	1.03	1.04	1.07	0.899	0.87	0.793	0.649	0.745	0.901	0.952	0.909	0.78	0.805
RERF-LC-KJ	1.15	1.02	0.995	0.909	0.952	0.812	1.1	0.84	0.702	0.627	0.763	0.818	0.718	0.705	0.753	0.869	0.851	0.857	0.745	0.727
SK-LU-1	0.394	0.361	0.367	0.43	0.411	1.08	0.897	1.05	0.837	0.893	0.813	0.899	0.82	0.679	0.712	1.13	1.14	1.07	1.03	0.732
SK-MES-1	0.34	0.347	0.309	0.314	0.378	1.29	1.14	1.4	1.26	1.26	0.983	0.976	0.898	0.647	0.56	0.964	1.2	1.03	0.796	0.674
SW 1573	0.353	0.366		0.371	0.388	0.997	0.781	0.93	1.15	0.934	0.851	0.702	0.761	0.385	0.207	0.81	0.769	0.738	0.346	0.258
